Data from ChEMBL document CHEMBL1201862, “PubChem BioAssay data set” (2004).
Calls of active or inactive are those of the source. For most assays here, no stated cut-off is given here; in the data, actives have a measured EC50 and inactives only a lower limit.

Columns and labels:
[1] = target: T1, RNA-binding protein pos-1 (Caenorhabditis elegans, UniProt G5EF15); assay: inhibitors of POS-1/mex-3 RNA binding, dose response, biochemical, fluorescence polarization (AID 1964);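 further: purified POS-1 fused to maltose binding protein made in E. coli; potency of compounds blocking POS-1 binding to fluorescent RNA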
T1 sequence (G5EF15 whole entry): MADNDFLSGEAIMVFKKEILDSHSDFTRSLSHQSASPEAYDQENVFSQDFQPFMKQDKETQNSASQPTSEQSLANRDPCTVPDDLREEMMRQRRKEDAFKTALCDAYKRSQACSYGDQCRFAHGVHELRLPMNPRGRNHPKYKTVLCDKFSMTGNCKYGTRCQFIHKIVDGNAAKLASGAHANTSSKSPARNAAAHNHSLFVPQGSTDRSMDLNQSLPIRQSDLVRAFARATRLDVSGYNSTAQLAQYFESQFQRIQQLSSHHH

[2] = target: T2, Zinc finger protein mex-5 (Caenorhabditis elegans, UniProt Q9XUB2); assay: MEX-5/TCR-2 RNA interaction inhibitors, dose response, biochemical, C. elegans, fluorescence polarization (AID 1960)
T2 sequence (Q9XUB2 whole entry): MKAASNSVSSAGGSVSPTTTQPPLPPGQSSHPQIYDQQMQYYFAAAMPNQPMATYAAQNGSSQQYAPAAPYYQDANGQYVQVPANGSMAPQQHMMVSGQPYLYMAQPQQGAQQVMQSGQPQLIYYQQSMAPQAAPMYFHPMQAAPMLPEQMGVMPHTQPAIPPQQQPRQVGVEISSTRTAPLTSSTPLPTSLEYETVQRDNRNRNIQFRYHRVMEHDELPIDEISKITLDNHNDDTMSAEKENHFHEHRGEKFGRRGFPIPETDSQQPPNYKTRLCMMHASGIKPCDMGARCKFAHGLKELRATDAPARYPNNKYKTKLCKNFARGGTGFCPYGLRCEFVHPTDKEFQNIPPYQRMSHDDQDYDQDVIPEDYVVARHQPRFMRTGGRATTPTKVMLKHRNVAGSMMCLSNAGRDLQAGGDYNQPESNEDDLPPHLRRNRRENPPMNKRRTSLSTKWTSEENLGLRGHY

[3] = inhibitors of intracellular T. cruzi replication, confirmation, NIH3T3 host cells, beta-gal luminescence (AID 2044); type: functional, cell-based;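 further: intracellular parasites grown in NIH/3T3 mouse fibroblasts as host cells; luminescent beta-galactosidase reporter signal from transgenic T. cruzi replicating inside host cells; inhibitors lower the luminescence signal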
[4] = cytotoxicity toward NIH3T3 fibroblasts, dose response, counter-screen, cell-based, ATP luminescence, mouse fibroblasts (AID 2010); type: functional;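 further: cells exposed to compound for about 90 hours before reading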
[5] = target: T3, Replicative DNA helicase DnaB (Mycobacterium tuberculosis, UniProt P9WMR3); assay: DnaB intein splicing inhibitors, dose response, biochemical, cell-free fluorescence (AID 449749); type: functional
T3 sequence (P9WMR3 whole entry): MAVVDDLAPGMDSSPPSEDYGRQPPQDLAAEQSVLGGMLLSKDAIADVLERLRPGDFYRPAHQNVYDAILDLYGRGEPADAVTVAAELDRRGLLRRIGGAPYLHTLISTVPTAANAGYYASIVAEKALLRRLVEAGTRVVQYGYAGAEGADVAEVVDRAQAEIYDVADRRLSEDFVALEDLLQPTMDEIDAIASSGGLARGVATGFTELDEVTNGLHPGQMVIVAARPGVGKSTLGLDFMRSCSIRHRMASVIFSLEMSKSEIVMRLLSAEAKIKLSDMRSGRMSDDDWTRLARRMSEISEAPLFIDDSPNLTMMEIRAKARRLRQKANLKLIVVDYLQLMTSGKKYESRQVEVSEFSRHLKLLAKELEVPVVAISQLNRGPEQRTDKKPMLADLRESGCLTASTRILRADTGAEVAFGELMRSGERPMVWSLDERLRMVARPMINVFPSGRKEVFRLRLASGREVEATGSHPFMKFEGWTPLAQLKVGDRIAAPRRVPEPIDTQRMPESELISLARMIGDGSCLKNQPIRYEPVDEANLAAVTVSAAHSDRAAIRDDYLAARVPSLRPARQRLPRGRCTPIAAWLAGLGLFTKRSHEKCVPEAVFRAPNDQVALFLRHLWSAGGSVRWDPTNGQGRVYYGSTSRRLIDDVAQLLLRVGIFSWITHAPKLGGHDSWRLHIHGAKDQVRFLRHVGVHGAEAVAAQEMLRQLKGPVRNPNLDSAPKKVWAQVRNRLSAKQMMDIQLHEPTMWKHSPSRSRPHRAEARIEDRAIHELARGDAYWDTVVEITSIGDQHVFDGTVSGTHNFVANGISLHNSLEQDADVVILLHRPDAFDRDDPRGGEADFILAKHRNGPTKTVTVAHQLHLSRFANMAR

[6] = target: T4, Protein RecA (Mycobacterium tuberculosis, UniProt P9WHJ3); assay: Fluorescence Cell-Free Homogeneous Dose Retest to Identify Inhibitors of RecA-Intein Splicing Activity. [Related pubchem assays (depositor defined):AID2097, AID2223, AID489010, AID492950]; type: functional
T4 sequence (P9WHJ3 whole entry): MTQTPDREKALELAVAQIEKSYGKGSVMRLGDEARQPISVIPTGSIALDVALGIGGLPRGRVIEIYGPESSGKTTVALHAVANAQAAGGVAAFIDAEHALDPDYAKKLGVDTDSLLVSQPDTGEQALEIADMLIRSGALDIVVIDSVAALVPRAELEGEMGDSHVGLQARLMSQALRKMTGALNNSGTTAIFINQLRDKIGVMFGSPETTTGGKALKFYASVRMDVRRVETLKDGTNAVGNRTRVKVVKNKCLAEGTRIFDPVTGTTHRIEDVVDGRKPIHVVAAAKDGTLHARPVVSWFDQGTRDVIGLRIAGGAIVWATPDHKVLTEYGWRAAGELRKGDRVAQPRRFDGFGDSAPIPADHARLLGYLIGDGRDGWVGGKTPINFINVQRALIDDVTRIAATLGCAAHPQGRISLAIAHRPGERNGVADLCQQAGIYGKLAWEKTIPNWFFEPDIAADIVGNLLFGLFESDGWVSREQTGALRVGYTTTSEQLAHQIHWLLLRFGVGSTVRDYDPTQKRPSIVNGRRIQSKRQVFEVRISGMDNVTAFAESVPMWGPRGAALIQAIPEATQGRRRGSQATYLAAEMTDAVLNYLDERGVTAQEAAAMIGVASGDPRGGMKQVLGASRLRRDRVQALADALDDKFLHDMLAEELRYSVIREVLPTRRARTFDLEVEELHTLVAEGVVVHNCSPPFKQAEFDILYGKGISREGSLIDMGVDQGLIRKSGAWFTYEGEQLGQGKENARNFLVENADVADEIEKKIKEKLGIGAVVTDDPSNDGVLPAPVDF

[7] = target: FAD-linked sulfhydryl oxidase ALR (Homo sapiens, UniProt P55789); assay: inhibitors of human ALR sulfhydryl oxidase, dose response, biochemical, H2O2 detection, luminescence, cherry-pick (AID 493248)
[8] = HEp-2 cell cytotoxicity, dose response, cytotoxicity control for RSV inhibitor project, HTS (AID 2410); type: functional; settings: human respiratory syncytial virus
[9] = cells; type: functional
[10] = Luminescence Cell-Based Dose Confirmation HTS to Identify Activators of 5'UTR Stem-Loop Driven Alpha-Synuclein mRNA Translation in H4 Neuroglioblastoma Cells. [Related pubchem assays: 1829 (Project Summary), 1814 (Primary HTS)]; type: functional
[11] = Luminescence Cell-Based Dose Response HTS to Identify Activators of Luciferase Translation or Activity in H4 […] Cells. [Related pubchem assays: 1829 (Project Summary), 1814 (Primary HTS)]; type: functional
[12] = tested on: H4; assay: Luminescence Cell-Based Dose Response HTS to Identify Activators of 5'UTR Stem-Loop Driven Prion Protein mRNA Translation in H4 Neuroglioblastoma Cells. [Related pubchem assays: 1829 (Project Summary), 1814 (Primary HTS)]; type: functional; settings: Homo sapiens
[13] = microbe, parasite or virus in culture; type: functional; settings: Mycobacterium tuberculosis
[14] = target: T5, Polyadenylate-binding protein 1 (Homo sapiens, UniProt P11940); assay: PABP1 MLLE–PAM2 interaction inhibitors, dose response, miRNA deadenylation inhibitor project, biochemical, fluorescence polarization, Cy5-PAM2 peptide, secondary (AID 602260); type: functional; settings: read-out: IC50_Mean
[15] = target: T5, Polyadenylate-binding protein 1; assay: PABP1 MLLE–PAM2 binding inhibitor potency, dose response, biochemical, fluorescence polarization, FITC-PAM2 peptide (AID 602259); type: functional; settings: read-out: IC50_Mean
[16] = target: T6, Heat shock factor protein 1 (Mus musculus, UniProt P38532); assay: inhibition of MG132-induced HSE-luciferase signal, confirmation, cell-based, NIH3T3, luminescence, dose retest (AID 2382); type: functional;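 further: NIH3T3 fibroblasts with HSF1-driven luciferase reporter stressed by proteasome inhibitor MG132; luminescence from HSF1-driven luciferase expression after 8 hours of MG132 stress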
T6 sequence (P38532 whole entry): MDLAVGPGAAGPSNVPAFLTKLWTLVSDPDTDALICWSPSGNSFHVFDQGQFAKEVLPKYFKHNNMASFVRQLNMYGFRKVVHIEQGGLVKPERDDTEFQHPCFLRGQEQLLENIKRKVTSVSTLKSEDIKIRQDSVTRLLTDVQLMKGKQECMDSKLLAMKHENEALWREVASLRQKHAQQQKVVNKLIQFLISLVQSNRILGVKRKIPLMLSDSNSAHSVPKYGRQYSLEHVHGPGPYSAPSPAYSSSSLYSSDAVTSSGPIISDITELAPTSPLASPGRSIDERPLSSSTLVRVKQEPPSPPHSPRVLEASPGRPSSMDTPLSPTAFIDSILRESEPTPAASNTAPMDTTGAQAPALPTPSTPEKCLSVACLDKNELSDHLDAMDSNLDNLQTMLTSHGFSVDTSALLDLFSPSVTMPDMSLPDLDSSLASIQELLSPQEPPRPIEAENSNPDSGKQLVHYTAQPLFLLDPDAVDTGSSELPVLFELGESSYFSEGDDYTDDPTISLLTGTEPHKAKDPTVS

Chain of FAD-linked sulfhydryl oxidase ALR (P55789 whole entry): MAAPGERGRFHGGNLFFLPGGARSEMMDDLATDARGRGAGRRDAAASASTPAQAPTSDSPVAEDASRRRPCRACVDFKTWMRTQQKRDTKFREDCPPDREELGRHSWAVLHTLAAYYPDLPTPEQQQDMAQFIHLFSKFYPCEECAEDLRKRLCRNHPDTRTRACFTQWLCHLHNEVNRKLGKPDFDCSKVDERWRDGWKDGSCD
T5 sequence (P11940 whole entry): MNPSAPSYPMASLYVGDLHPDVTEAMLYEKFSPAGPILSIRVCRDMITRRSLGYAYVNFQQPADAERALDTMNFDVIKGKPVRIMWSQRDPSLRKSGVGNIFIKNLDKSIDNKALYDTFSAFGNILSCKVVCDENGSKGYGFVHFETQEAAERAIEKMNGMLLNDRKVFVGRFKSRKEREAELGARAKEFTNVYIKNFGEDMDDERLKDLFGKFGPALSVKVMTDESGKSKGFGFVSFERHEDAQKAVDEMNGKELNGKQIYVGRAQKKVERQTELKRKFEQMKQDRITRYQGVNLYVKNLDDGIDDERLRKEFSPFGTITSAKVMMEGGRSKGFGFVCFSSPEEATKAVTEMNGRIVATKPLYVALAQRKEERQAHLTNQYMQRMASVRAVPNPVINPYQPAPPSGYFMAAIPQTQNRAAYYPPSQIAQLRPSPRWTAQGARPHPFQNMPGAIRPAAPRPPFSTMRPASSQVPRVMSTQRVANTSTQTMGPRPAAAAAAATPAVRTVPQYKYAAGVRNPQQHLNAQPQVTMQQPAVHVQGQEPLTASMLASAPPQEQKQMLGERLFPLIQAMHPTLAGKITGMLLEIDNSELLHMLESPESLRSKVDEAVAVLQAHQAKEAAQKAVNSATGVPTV

## COc1c(/C=C2/C(=O)NC(=O)N(C)C2=O)c(CCN(C)C(=O)c2ccccc2)cc2c1OCO2
[1]
  EC50: > 300 µM (not active)
[2]
  EC50: > 300 µM (not active)

## CC(=O)N(C)Cc1ccc(C(=O)CCl)cc1
[3]
  EC50: 2.51 µM (active)
[4]
  EC50: 3.7 µM (active)
[5]
  AC50: 56.2 µM (active)
[6]
  EC50: 19.4 µM (active)

## CCc1cc(-c2nnc(S)n2-c2cccc(C)c2)cs1
[7]
  AC50: 3.65 µM (active)

## CCN(CC)CCN(Cc1cc2ccc(C)c(C)c2nc1O)C(S)=NCc1ccco1
[8]
  CC50: > 50 µM (active)
[1]
  EC50: > 300 µM (not active)
[2]
  EC50: > 300 µM (not active)

## CCOC(=O)CSc1nnc(NCC(=O)OC(C)C)c(=O)[nH]1
[5]
  AC50: 3.45 µM (active)
[6]
  EC50: 9.44 µM (active)

## CC1(C)Nc2ccccc2N(Cc2ccc([N+](=O)[O-])cc2)C1=O
[7]
  AC50: 3.92 µM (active)

## COc1cccc(NC(=O)c2ccc(Cn3cc([N+](=O)[O-])cn3)o2)c1
[9]
  IC50: 18.5 µM (active)

## CN1CCN(Cn2cc(/C=C/C(=O)c3ccccc3)c3ccccc32)CC1
[10]
  EC50: 0.233 µM (active)
[11]
  EC50: 0.148 µM (active)
[12]
  EC50: 18.9 µM (active)
[13]
  CC50: > 40 µM (active)

## COc1cc(/C=N/Nc2nc(O)nnc2C)cc([N+](=O)[O-])c1O
[1]
  EC50: 7.98 µM (active)
[2]
  EC50: 10.8 µM (inconclusive)

## Cc1noc(C)c1COC(=O)Cc1ccc(Br)cc1
[5]
  AC50: 124 µM (active)
[6]
  EC50: > 380 µM (inactive)

## CCCOc1ccc(/C=c2\sc3nc(-c4ccco4)nn3c2=O)cc1OCC
[1]
  EC50: > 300 µM (not active)
[2]
  EC50: > 300 µM (not active)

## Sc1nnc(-c2ccc(Cl)cc2)n1-c1ccc(Cl)cc1
[7]
  AC50: 4.74 µM (active)

## O=C(Nc1cccc(-c2cn3ccccc3n2)c1)c1ccccc1
[7]
  AC50: 2.89 µM (active)

## O=C(Nc1cc(Oc2ccccc2)cc([N+](=O)[O-])c1)C12CC3CC(C1)CC(n1cnc(Cl)n1)(C3)C2
[3]
  EC50: 1.51 µM (active)
[13]
  CC50: > 40 µM (active)
[4]
  EC50: > 60 µM (not active)

## Cc1cc(C)n(C(=O)c2ccc([N+](=O)[O-])cc2[N+](=O)[O-])n1
[9]
  IC50: 43.6 µM (active)

## CC(C)c1nnc(NC(=O)c2cc3cc(Br)ccc3oc2=O)s1
[9]
  IC50: 0.66 µM (active)

## CN1C(=O)C(=Cc2cn(CC(=O)N3CCCC3)c3ccccc23)C(=O)N(C)C1=O
[1]
  EC50: > 300 µM (not active)
[2]
  EC50: > 300 µM (not active)

## COc1ccc(CCSc2nnc(C3CCCCC3)n2N)cc1
[7]
  AC50: 2.81 µM (active)

## COc1ccc(CNC(=O)c2cc3cccc(O)c3oc2=N)cc1
[9]
  IC50: 47.8 µM (active)

## CCN(CC)C(=O)c1ccc2c(c1[N+](=O)[O-])C(=O)c1ccccc1C2=O
[5]
  AC50: > 380 µM (inactive)
[6]
  EC50: > 380 µM (inactive)

## CCCCCc1ccc(S(=O)(=O)NCCc2ccncc2)cc1
[13]
  CC50: 12.1 µM (active)

## O=C(O)CCc1ccc(-c2ccccc2)n1-c1ccc(C(=O)O)cc1
[1]
  EC50: > 300 µM (not active)
[2]
  EC50: > 300 µM (not active)

## COC(=O)C1CSc2[nH]c(=O)sc2C1c1ccc(OC)c(OC)c1 (centres undefined)
[1]
  EC50: > 300 µM (not active)
[2]
  EC50: > 300 µM (not active)

## Nc1cc(C(=O)O)ccc1Nc1ccc(F)c(F)c1
[7]
  AC50: 0.345 µM (active)

## COc1c(O)cccc1[C@H](O)C1CCN(CCc2ccc(F)cc2)CC1
[1]
  EC50: 14.4 µM (active)
[2]
  EC50: 13.7 µM (active)
[14]
  IC50: > 66 µM (inactive)
[15]
  IC50: 36.9 µM (inactive)

## COC(=O)c1nnc(NC(=O)c2ccc(C(C)(C)C)cc2)[nH]1
[16]
  EC50: > 195 µM (not active)
[5]
  AC50: 3.57 µM (active)
[6]
  EC50: 10.1 µM (active)

## O=C(c1cnn2c(C(F)F)cc(-c3ccccc3)nc12)N1CCc2ccccc2C1
[13]
  CC50: > 40 µM (active)

## CCOC(=O)c1c2ccc(OCC(=O)N/N=C/c3ccc(Cl)cc3)cc2n2ccccc12
[1]
  EC50: > 300 µM (not active)

## CCN(CC)C(=O)Cn1cc(C(=O)C(=O)N2CCc3ccccc32)c2ccccc21
[1]
  EC50: > 300 µM (not active)
[2]
  EC50: > 300 µM (not active)
